Results reported in patent publication US20040044281A1, “Systems and methods for assessing blood flow in a target tissue” (priority 2002, published 2004).
“And” between values parts separate entries of the source, which are not always exact repeats. Identical values can stand only once.

Test system: tumor blood flow
Experiment: DCE-MRI tumor blood flow estimation pre- and post-treatment in patients of a phase I trial
Format: in vivo, human
Design: Change tgp / Change Gpeak / Change tgp10 / Change E: unit not given here
Details: individual patients; for Post-treatment E (enhancement) / Post-treatment Gpeak (gradient peak) / Post-treatment tgp10 (time till gradient drops to 10% of Gpeak) / Post-treatment tgp (time to gradient peak): DCE-MRI 4-6 hrs after infusion, tumor ROI; for Change E / Change Gpeak / Change tgp / Change tgp10: post minus pre-treatment
Method: The above equation (4) for Srel can be solved for the concentration variable C if the baseline set of MR image data set is set equal to Sbaseline, and the post MR sets of image data is set equal to the variable Spostcontrast. Concentration C can be calculated on a pixel by pixel or voxel by voxel basis and then averaged resulting in a data set of Concentration C as a function of time. A shown in Block 50 of FIG. 1, the mathematical derivative of Concentration C is determined, preferably by fitting a curve through the concentration data set and then taking the derivative of the curve equation to acquire a gradient curve. The gradient curve represents the rate of change of the tissue concentration of the contrast agent in the ROI. As shown in block 60 of FIG. 1, the maximum value of the rate of change of concentration per time (dC/dt) or Gpeak, is then determined. Thus, Gpeak, which is the magnitude of the first derivative of the concentration curve, can be employed as a flow analog that maintains a high correlation with flow with minimal sensitivity to variations in volume Ve. MRI acquisition techniques, coupled with image analysis techniques (e.g., intensity, rate of change of intensity), facilitate determining the efficacy of a treatment.
With A=40 mMol·sec (the area under curve without recirculation), B=0.5 mMol (the equilibrium concentration), and tp was the time to peak. […] In each case flow F was varied from 0.001 to 0.03 ml/sec/g. Five parameters were calculated from each curve as shown for example purposes in FIG. 5. Magnitude of the first derivative peak (Gpeak), time from bolus arrival to first derivative peak (tgp,) time for gradient to drop to 10% of peak value (tgp10,), the concentration at tgp10 (denoted CE), and initial area under the CT curve from bolus arrival to 60 sec afterwards (IAUC) (Evelhoch, 1999.
DCE-MRI. Six patients were studied using a 1.5T scanner (Siemens Magnetom Vision). Perfusion studies were obtained with a single-slice Fast Low Angle Shot (FLASH) sequence (TR=10, TE=4, FA=30°, slice thickness=10 mm, matrix=128×256, FOV=16×25 cm-35×35 cm) repeated 128 times, once every 2.6 seconds. The first 10 images were obtained without contrast enhancement, after which an approximately 10 second bolus of Gadolinium-DTPA contrast agent (Magnevist, Berlex Laboratories) was administered intravenously. […] DCE-MRI was performed twice on each patient; once to obtain a pre-treatment baseline, and once 4-6 hrs after infusion of combretestatin. The slice position and orientation between days within each patient was carefully matched to obtain data from the same region of interest (ROI) in the tumor. Image processing was performed off-line using a custom software package that permitted a trained rater to view all 128 images in a study and to interactively identify the tumor ROI.

With COc1ccc(/C=C\c2cc(OC)c(OC)c(OC)c2)cc1OP(=O)(O)O [CA4P, disodium combretastatin-A-4-3-O-phosphate] the “Post-treatment E (enhancement)” value (60 mg/m^2 (10 min)) was 2.01 and 1.87, the “Post-treatment Gpeak (gradient peak)” value (60 mg/m^2 (10 min)) was 6.18 and 5.71 and the “Post-treatment tgp10 (time till gradient drops to 10% of Gpeak)” value (60 mg/m^2 (10 min)) was 25.30 and 34.50. For the same molecule, the “Post-treatment tgp (time to gradient peak)” value (60 mg/m^2 (10 min)) was 11.50 and 6.90, the “Post-treatment E (enhancement)” value (60 mg/m^2 (1 hr)) was 1.72 and 1.76 and 1.80 and 1.28 and 1.30 and the “Post-treatment Gpeak (gradient peak)” value (60 mg/m^2 (1 hr)) was 4.93 and 3.57 and 3.47 and 2.19 and 1.48. For the same molecule, the “Post-treatment tgp10 (time till gradient drops to 10% of Gpeak)” value (60 mg/m^2 (1 hr)) was 36.60 and 44.50 (2×) and 20.90 and 52.60, the “Post-treatment tgp (time to gradient peak)” value (60 mg/m^2 (1 hr)) was 7.86 (2×) and 15.70 and 13.10 and 11.70 and the “Change E” value (60 mg/m^2 (10 min)) was −0.41 and 0.05. For the same molecule, the “Change Gpeak” value (60 mg/m^2 (10 min)) was −1.12 and 0.92, the Change tgp (60 mg/m^2 (10 min)) was 0.00 and the “Change tgp10” value (60 mg/m^2 (10 min)) was −13.80 and −4.60. The “Change E” value (60 mg/m^2 (1 hr)) was −0.27 and −0.06 and −0.13 and −0.22 and −0.20, the “Change Gpeak” value (60 mg/m^2 (1 hr)) was −3.76 and −1.05 and −1.53 and −1.44 and −1.75 and the Change tgp (60 mg/m^2 (1 hr)) was 0.00 and 2.60 and 5.24 and 2.62 and −4.00. For the same molecule, the “Change tgp10” value (60 mg/m^2 (1 hr)) was 18.30 and 5.20 and 10.50 and −15.70 and 21.20.
